Experimental data as given in publication PMC9695823, “Regioselective Synthesis of 6-O-Acetyl Dieckol and Its Selective Cytotoxicity against Non-Small-Cell Lung Cancer Cells” (Marine Drugs, 2022).

How the values were obtained:
[1] = tested on: NIH/3T3 cells; experiment: MTT cytotoxicity assay against normal cell line NIH/3T3; format: cell-based; conditions: 24 h treatment, 0-500 μM, mean ± SD, listed as DK
Experimental: (§1) The cytotoxicity of DK and its various acyl and alkyl derivatives was assessed using the MTT assay against a non-small-lung cancer cell line (A549) and a normal cell line (NIH/3T3) at […] different concentrations (0, 0.005, 0.05, 0.5, 5, 50 and 500 μM). Among the newly synthesized acyl derivatives, the 6-O-acetyl (2) and 6-O-benzoyl (3) derivatives were included in this study, while the 6-O-propionyl (4) and 6-O-toluoyl (5) derivatives, which had been considered to be very similar to 6-O-acetyl (2) and 6-O-benzoyl (3) derivatives, respectively, were excluded from this study. […] The methyl and benzyl derivatives (6 and 7) were selected in parallel with acetyl and benzoyl (2 and 3) derivatives, respectively, to identify any impact of substitution chemistry (via sp^2 vs. sp^3 carbon in acylations and alkylations, respectively) and steric effect in cytotoxicity. Methoxymethyl (8), 3-(ethoxycarbonyl)propyl (9) and hydroxypropyl (10) derivatives were selected to determine the size effect of moderately polar substituents with a common heteroatom such as oxygen.
(§2) The non-small-cell lung cancer cell line A549 and the normal cell line NIH/3T3 were purchased from Korea Cell Line Research Foundation (Seoul, Korea). The cell lines were cultured in Dulbecco’s modified Eagle’s medium (DMEM) supplemented with 10% FBS and 1% penicillin–streptomycin at 37 °C with 5% CO2.
(§3) The cytotoxicity of DK and its derivatives was assessed by MTT assay, based on the reduction of MTT into insoluble formazan crystals by metabolically active cells. Briefly, the cells ([…]) were seeded in each well containing culture medium in a 96-well plate. After the incubation for 24 h at 37 °C, various concentrations of DK and its derivatives were added. […] The optical density was measured at 540 nm using a microplate spectrophotometer (Epoch; Agilent Technologies, Inc. Santa Clara, CA, USA). […] The IC50 values of DK and its derivatives were determined for the different cell lines by nonlinear regression using GraphPad Prism v6.0 software (La Jolla, CA, USA).

[2] = tested on: A549 cells; experiment: MTT cytotoxicity assay against A549 non-small-cell lung cancer cells; format: cell-based; conditions: for IC50: Homo sapiens, A549
Experimental: as §1, §2
The cytotoxicity of DK and its derivatives was assessed by MTT assay, based on the reduction of MTT into insoluble formazan crystals by metabolically active cells. Briefly, the cells ([…]) were seeded in each well containing culture medium in a 96-well plate. After the incubation for 24 h at 37 °C, various concentrations of DK and its derivatives were added. After 24 h, 10 μL of the MTT reagent ([…]) was added, and the plates were incubated for an additional 2 h. The medium was discarded, and the formazan blue, which was formed in the cells, was dissolved in […] of dimethyl sulfoxide (DMSO). The optical density was measured at 540 nm using a microplate spectrophotometer (Epoch; Agilent Technologies, Inc. Santa Clara, CA, USA). The IC50 corresponded to a 50% decrease in the number of cells compared to the untreated control. The results are represented as the mean of three independent experiments. The IC50 values of DK and its derivatives were determined for the different cell lines by nonlinear regression using GraphPad Prism v6.0 software (La Jolla, CA, USA).

[3] = set-up: method as in PMID 35542614; conditions: estimated; cited from earlier work
[4] = MTT cytotoxicity assay against normal cell line NIH/3T3; format: cell-based; conditions: mouse, NIH/3T3 normal cells, 24 h treatment, 0-500 μM, mean ± SD
Experimental: as §1, §2, §3

[5] = tested on: NSCLC (A549) cells vs. normal (NIH/3T3) cells; experiment: Selectivity index, cytotoxicity A549 vs. NIH/3T3; format: cell-based; conditions: SI = IC50 (NIH/3T3 cells)/IC50 (A549 cells)
From the text: The ideal anticancer drug should have a relatively high toxic concentration on normal cells with a very low active concentration on cancer cells. In this study, the cancer-selective cytotoxicity of DK derivatives has been studied for the first time. To address this selectivity issue, the selectivity index (SI), which is defined as the ratio of the toxic concentration of a sample against its effective bioactive concentration according to Equation (1) (see Section 4.7), was used. […] An SI value ≥ 10 was assumed to belong to a selected potential sample that can be further investigated. Therefore, the acetyl and hydroxypropyl DKs would be highly considered for further investigations as potential anti-NSCLC chemotherapeutic agents.
The selectivity index (SI) was determined to assess the selective cytotoxicity of the DK derivatives against NSCLC (A549) cells vs. normal (NIH/3T3) cells based on Equation (1):SI = IC50 (NIH/3T3 cells)/IC50 (A549 cells)(1)

[6] = MTT, 24 h treatment, 0-500 μM, mean ± SD

Row | Compound | Cytotoxicity (IC50) NIH/3T3 [1] | Cytotoxicity (IC50) A549 ([2]; MTT, 24 h treatment, 0-500 μM, mean ± SD, listed as DK) | lowest pKa [3] | IC50 at 24 h [4] [µM] | times higher activity than 6-O-benzyl DK ([2]; A549 cells) [times] | IC50 [2, 6] [µM] | SI Value (selectivity index) [5] | fold increase in IC50 compared with acetyl DK ([2]; A549 cells) [fold]
1 | Oc1cc(O)cc(Oc2c(O)cc(O)c3c2Oc2c(O)cc(Oc4c(O)cc(Oc5c(O)cc(O)c6c5Oc5c(O)cc(O)cc5O6)cc4O)cc2O3)c1 [compound 1, Dieckol] | did not show detectable cytotoxicity | did not show detectable cytotoxicity | 5.0 | – | – | – | – | –
2 | CC(=O)Oc1cc(O)cc2c1Oc1c(Oc3cc(O)c(Oc4cc(O)c5c(c4)Oc4c(O)cc(O)c(Oc6cc(O)cc(O)c6)c4O5)c(O)c3)c(O)cc(O)c1O2 [compound 2, 6-O-acetyl dieckol] | – | – | – | 481 | 120 | 7.02 ± 1.53 | 68.58 | –
3 | O=C(Oc1cc(O)cc2c1Oc1c(Oc3cc(O)c(Oc4cc(O)c5c(c4)Oc4c(O)cc(O)c(Oc6cc(O)cc(O)c6)c4O5)c(O)c3)c(O)cc(O)c1O2)c1ccccc1 [compound 3, 6-O-benzoyl dieckol] | – | – | – | – | – | 641 ± 17.9 | – | 91
4 | OCCCOc1cc(O)cc2c1Oc1c(Oc3cc(O)c(Oc4cc(O)c5c(c4)Oc4c(O)cc(O)c(Oc6cc(O)cc(O)c6)c4O5)c(O)c3)c(O)cc(O)c1O2 [compound 10] | – | – | – | 563 ± 51.8 | – | 13.1 ± 5.06 | 43.07 | –
